Measured values published in patent US4690925A, “(2-Oxo-1,2,3,5-tetrahydroimidazo-[2,1-B]quinazolinyl) oxyalkylamides properties having phosphodiosterase inhibiting” (Syntex (U.S.A.) Inc., priority 1985, dated 1987).
pIC50: −log10 of the molar value.

What was measured:
[1] = molecular target: T1, Human platelet cyclic AMP phosphodiesterase (Homo sapiens, UniProt Q14432); test: Cyclic AMP phosphodiesterase assay, human platelet enzyme (Table I); format: biochemical; conditions: for pIC50: 1 μM cyclic AMP as substrate, soluble enzyme from human platelets, read-out: Human Platelet IC50 (inhibition of cyclic AMP phosphodiesterase); for Relative Potency: relative to theophylline, which is assigned a value of 1 on human platelet phosphodiesterase
T1 construct: from tissue; host or cells: human platelets from donors, soluble fraction after freeze-thaw and hypotonic lysis
T1 sequence (Q14432 whole entry): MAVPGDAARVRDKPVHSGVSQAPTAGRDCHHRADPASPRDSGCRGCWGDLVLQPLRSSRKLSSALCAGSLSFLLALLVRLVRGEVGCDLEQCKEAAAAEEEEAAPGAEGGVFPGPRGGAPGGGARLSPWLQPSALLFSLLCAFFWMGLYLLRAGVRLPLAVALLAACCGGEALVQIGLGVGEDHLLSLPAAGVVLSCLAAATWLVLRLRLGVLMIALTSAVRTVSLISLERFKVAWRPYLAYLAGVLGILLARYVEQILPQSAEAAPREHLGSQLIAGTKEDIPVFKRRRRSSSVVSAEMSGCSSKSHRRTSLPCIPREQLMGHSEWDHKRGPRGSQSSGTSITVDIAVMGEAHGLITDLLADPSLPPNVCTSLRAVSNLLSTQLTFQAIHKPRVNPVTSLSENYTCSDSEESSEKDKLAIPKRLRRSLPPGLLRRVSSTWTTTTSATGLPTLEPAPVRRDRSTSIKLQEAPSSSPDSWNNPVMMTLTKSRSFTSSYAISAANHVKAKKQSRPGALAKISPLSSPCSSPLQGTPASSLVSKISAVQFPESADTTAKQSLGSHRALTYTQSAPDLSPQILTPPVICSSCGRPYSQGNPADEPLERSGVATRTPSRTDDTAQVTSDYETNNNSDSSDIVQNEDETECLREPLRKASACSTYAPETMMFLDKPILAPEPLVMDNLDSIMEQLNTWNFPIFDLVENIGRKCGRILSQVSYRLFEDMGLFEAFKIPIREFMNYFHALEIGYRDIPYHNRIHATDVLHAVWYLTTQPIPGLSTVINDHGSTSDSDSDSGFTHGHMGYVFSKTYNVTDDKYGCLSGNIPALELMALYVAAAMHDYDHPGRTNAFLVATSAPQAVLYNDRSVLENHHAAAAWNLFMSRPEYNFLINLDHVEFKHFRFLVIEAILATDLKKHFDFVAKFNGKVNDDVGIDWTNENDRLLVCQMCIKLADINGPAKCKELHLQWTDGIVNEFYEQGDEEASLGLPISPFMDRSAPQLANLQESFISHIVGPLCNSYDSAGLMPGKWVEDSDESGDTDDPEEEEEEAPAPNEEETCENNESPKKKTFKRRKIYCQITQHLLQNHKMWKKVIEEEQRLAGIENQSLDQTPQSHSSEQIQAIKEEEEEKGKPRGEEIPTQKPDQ
Method: (§1) The inhibition of cyclic AMP phosphodiesterase activity by the subject compounds was assayed by the method of Filburn and Karn, Analyt. Biochem., 52: 505-516 (1973), using 1 μM cyclic AMP as the substrate. Human platelet cyclic AMP phosphodiesterase was obtained from human donors. Platelets were isolated and washed by centrifugation, the membranes ruptured by a sequential freeze-thaw procedure and hypotonic lysis and the soluble enzyme isolated by high speed centrifugation. The enzyme was stored in aliquots at -20° C.
(§2) This table contains the IC50 values for human platelet phosphodiesterase and IC25 values for rat heart phosphodiesterase.

[2] = test system: Soluble dog heart PDE; test: Cyclic AMP phosphodiesterase inhibition, soluble dog heart PDE (Table I); format: biochemical; conditions: soluble dog heart PDE (footnote a)
Method: as §1, §2
^a Soluble dog heart PDE

[3] = test system: Soluble rat heart PDE; test: Cyclic AMP phosphodiesterase inhibition, soluble rat heart PDE (Table I); format: biochemical; conditions: soluble rat heart PDE (footnote b)
Method: as §1, §2
^b Soluble rat heart PDE

[4] = test system: Mongrel dogs; test: Inotropic activity in anesthetized mongrel dogs (Table II); format: in vivo, dog; conditions: 1 mg/kg i.v., suspended in carboxymethylcellulose, vagotomized dogs
Method: Mongrel dogs were anesthetized intravenously with 35 mg/kg sodium pentobarbital and supplemented as needed. Blood pressure was measured with a Statham pressure transducer via a cannula inserted from a femoral artery into the abdominal aorta. Heart rate was recorded by a cardiotachometer from a lead II electrocardiogram. Right ventricular contractile force was recorded from a Walton-Brodie strain gauge sutured to the right ventricle following a midsternal thoracotomy. A Harvard respirator was used to ventilate the dogs with room air through an endotracheal tube. Each dog was bilaterally vagotomized. Following a midline laparotomy, a cannula was sutured into the duodenum for intraduodenal administration of test compound. A femoral vein was cannulated for administration of isoproterenol. All data were recorded on a Beckman R611 Dynograph.
To assess the responsiveness of each dog, isoproterenol was given intravenously at half-log interval doses from 0.007 to 6.67 μg/kg. The test compound was then administered intravenously at 1 mg/kg.

[5] = test system: Lewis Lung Carcinoma; test: Antimetastatic activity against Lewis Lung Carcinoma (spontaneous metastases) (Table III); format: in vivo, mice (female, C57B1/6); conditions: 5 mg/kg oral, every other day, 20 to 21 days
Method: Mice (female, C57B1/6, 16-18 g) were inoculated subcutaneously between the inguinal and axillary areas with 0.2 ml of a freshly prepared tumor brei. Control mice were treated with vehicle. Other mice were treated orally with test compound in suspension in 0.5% carboxymethylcellulose (CMC). Treatments were initiated one day after tumor implanation, and continued every other day throughout the experiment. 20 to 21 days after implantation of the tumor, mice were sacrificed, the primary tumor was weighed, and the number of lung metastases was determined by counting under a dissecting microscope.

Row | SMILES | pIC50 [1] | Relative Potency [1] | Heart IC25 (inhibition of cyclic AMP phosphodiesterase), soluble dog heart PDE [2] | Heart IC25 (inhibition of cyclic AMP phosphodiesterase), soluble rat heart PDE [3] | Blood Pressure, peak effect [4] | Heart Rate, peak effect [4] | Rt. Ventricular Contractile Force, peak effect [4] | Number of Pulmonary Metastases, Range ([5]; control range 0-29) | Number of Pulmonary Metastases, Median ([5]; p < 0.05, control median 5)
1 | COC(=O)CN(C(=O)CCCOc1ccc2c(c1)CN1CC(=O)NC1=N2)C1CCCCC1 [Methyl 2-(N-cyclohexyl-4-(2-oxo-1,2,3,5-tetrahydroimidazo[2,1-b]quinazolin-7-yl)oxybutyramidyl)acetate] | 8.70 | 135,000 | 10.0 nM |  |  |  |  |  | 
2 | O=C(O)CN(C(=O)CCCOc1ccc2c(c1)CN1CC(=O)NC1=N2)C1CCCCC1 [2-(N-cyclohexyl-4-(2-oxo-1,2,3,5-tetrahydroimidazo[2,1-b]quinazolin-7-yl)oxybutyramidyl)acetic acid] | 8.30 | 54,000 |  | 100 nM | 32 % of Max. Isoproterenol | 30 % of Max. Isoproterenol | 33 % of Max. Isoproterenol | 0-11 | 0
3 | NC(=O)CN(C(=O)CCCOc1ccc2c(c1)CN1CC(=O)NC1=N2)C1CCCCC1 [2-(N-cyclohexyl-4-(2-oxo-1,2,3,5-tetrahydroimidazo[2,1-b]quinazolin-7-yl)oxybutyramidyl)acetamide] | 7.96 | 24,500 | 100 nM |  |  |  |  |  | 
